Experiments:
[1] = test system: middle instar larvae webbing clothes moth (Tineola bisselliella); experiment: Test Example 1 / Comparative Example 1: pest feed harm on treated wool muslin, infested after drying; type: in vivo; design: key: “+++” for a heavy level of the pest feed harm; “++” for a normal level of the pest feed harm; “+” for a minor level of the pest feed harm; “−” for no visual pest feed harm; settings: 10 larvae, 7 days of infestation at 25±2° C., repeats 1-5
Text: One-tenth (0.1) milliliter of acetone solutions composed of 0.1% w/v and 0.3% w/v of 1-methyl-2-nitro-3-[(3-tetrahydrofuryl)methyl]guanidine (hereinafter referred to as the present compound), respectively, was eye-dropped with a pipette onto wool muslins.
Each of the resulting wool muslins was then allowed to dry and was placed on the bottom portion of a plastic container.
Ten (10) middle instar larvae webbing clothes moth (Tineola bisselliella) were then placed, respectively, into the plastic container, and a nylon net was set on the top portion of the plastic container to cover the opening thereof. After 7 days of infestation under 25±2° C., the pest feed harm on the wool muslins were examined. The standards to the pest feed harm were “+++” for a heavy level of the pest feed harm, “++” for a normal level of the pest feed harm, “+” for a minor level of the pest feed harm and “−” for no visual pest feed harm. The tests were repeated 5 times.
(§1) Further, as a control, a test utilizing a wool muslin to which no composition was applied was similarly conducted. The control was repeated twice.
One-tenth (0.1) milliliter of acetone solutions composed of 0.1% w/v and 0.3% w/v of (E)-1-ethynyl-2-methyl-pent-2-enyl-(1R)-cis,trans-chrysanthemate (hereinafter referred to as comparative compound 1), respectively, was eye-dropped with a pipette onto wool muslins.
Ten (10) middle instar larvae webbing clothes moth (Tineola bisselliella) were then placed, respectively, into the plastic container, and a nylon net was set on the top portion of the plastic container to cover the opening thereof. After 7 days of infestation under 25±2° C., the pest feed harm on the wool muslins were examined. The standards to the pest feed harm were “+++” for a heavy level of the pest feed harm, “++” for a normal level of the pest feed harm, “+” for a minor level of the pest feed harm and “−” for no visual pest feed harm. The comparative experiments were repeated 5 times.

[2] = test system: middle instar larvae webbing clothes moth (Tineola bisselliella); experiment: Test Example 2 / Comparative Example 2: pest feed harm on treated wool muslin preserved for 2 weeks before infestation; type: in vivo; design: key: “+++” for a heavy level of the pest feed harm; “++” for a normal level of the pest feed harm; “+” for a minor level of the pest feed harm; “−” for no visual feed harm; settings: preserved at 25±2° C. for 2 weeks before test, 10 larvae, 7 days of infestation, repeats 1-5
Procedure: One-tenth (0.1) milliliter of acetone solutions composed of 0.1% w/v and 0.3% w/v of the present compound, respectively, was eye-dropped with a pipette onto wool muslins.
Each of the resulting wool muslins was then preserved at 25±2° C. for 2 weeks. After the 2 weeks, each of the wool muslins was placed on the bottom portion of a plastic container.
Ten (10) middle instar larvae webbing clothes moth (Tineola bisselliella) were then placed, respectively, into the plastic container and a nylon net was set on the top portion of the plastic container to cover the opening thereof. After 7 days of infestation under 25±2° C., the pest feed harm on the wool muslins were examined. The standards to the pest feed harm were “+++” for a heavy level of the pest feed harm, “++” for a normal level of the pest feed harm, “+” for a minor level of the pest feed harm and “−” for no visual feed harm. The tests were repeated 5 times.
as §1
One-tenth (0.1) milliliter of acetone solutions composed of 0.1% w/v and 0.3% w/v of Comparative compound 1, respectively, was eye-dropped with a pipette onto wool muslins.
Ten (10) middle instar larvae webbing clothes moth (Tineola bisselliella) were then placed, respectively, into the plastic container and a nylon net was set on the top portion of the plastic container to cover the opening thereof. After 7 days of infestation under 25±2° C., the pest feed harm on the wool muslins were examined. The standards to the pest feed harm were “+++” for a heavy level of the pest feed harm, “++” for a normal level of the pest feed harm, “+” for a minor level of the pest feed harm and “−” for no visual pest feed harm. The comparative experiments were repeated 5 times.

[3] = application amount 25 mg/m^2 on wool muslin
[4] = application amount 75 mg/m^2 on wool muslin

SMILES | Pest feed harm [1, 3] | Pest feed harm [1, 4] | Pest feed harm [2, 3] | Pest feed harm [2, 4]
CNC(=N[N+](=O)[O-])NCC1CCOC1 (centres unmarked) [Present compound, 1-methyl-2-nitro-3-[(3-tetrahydrofuryl)methyl]guanidine] | − | − | − | −
C#CC(OC(=O)C1C(C=C(C)C)C1(C)C)/C(C)=C/CC (mixture of isomers) [Comparative compound 1, (E)-1-ethynyl-2-methyl-pent-2-enyl-(1R)-cis,trans-chrysanthemate] | + + and + | + and + + | + + + | + + +

Reference: patent publication US20010049390A1, “Prevention of pest feed harm on a fibrous product” (priority 2000, published 2001)
